From patent US20200017495A1, “NOVEL HETEROCYCLIC COMPOUNDS AND THEIR USE IN PREVENTING OR TREATING BACTERIAL INFECTIONS” (priority 2017, published 2020)
Where two headings read alike, the source gives them in different places.

Assays:
Test in all cases: MIC of compounds alone and combined with antibacterials, broth microdilution (CLSI)
Assay type in all cases: cell-based
[1] = tested on: Citrobacter freundii (CFR) isolates; details: Citrobacter freundii, read-out: MIC
Outline: (§1)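 First, log-phase suspensions are brought to 5.10^5 CFU/mL final in ca-MHB; plates then incubate 16-20 h at 35° C in air. Growth is judged visually, giving the compound MIC alone and the antibacterial MIC at each compound concentration.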

[2] = tested on: Enterobacter aerogenes (EAE) isolates; details: Klebsiella aerogenes, alone, read-out: MIC
Outline: as §1

[3] = tested on: Citrobacter koseri (CKR) isolates; details: Citrobacter koseri, alone, read-out: MIC
Outline: as §1

[4] = tested on: Serratia marcescens (SMA) isolates; details: Serratia marcescens, read-out: MIC
Outline: as §1

[5] = tested on: Klebsiella oxytoca (KOX) isolates; details: Klebsiella oxytoca, alone, read-out: MIC
Outline: as §1

[6] = tested on: Escherichia coli (ECO) isolates; details: Escherichia coli, read-out: MIC
Outline: as §1

Which MIC ([1]; CFR UFR10, alone) does the source give for `O=C1N2CC(n3cccn3)=CC(C2)N1OC(F)(F)C(=O)[O-].[Li+]` (centres unmarked) [AF3] here?
Its MIC is 16 µg/mL.

And the MIC ([1]; CFR UFR11, alone)?
The MIC was greater than 32 µg/mL.

And the MIC ([1]; CFR UFR37, alone)?
The MIC was 8 µg/mL.

What about the MIC ([1]; CFR UFR83, alone) of the same compound?
The MIC was greater than 32 µg/mL.

What about the MIC ([1]; CFR UFR146, alone) of the same compound?
The MIC was 32 µg/mL.

What about the MIC ([1]; CFR UFR248, alone) of the same compound?
Its MIC is 8 µg/mL.

What about the MIC ([1]; CFR UFR249, alone) of the same compound?
The MIC was 8 µg/mL.

And the MIC ([1]; CFR UFR250, alone)?
Its MIC is 16 µg/mL.

What about the MIC ([1]; strain CFR UFR147, compound alone) of the same compound?
Its MIC is 4 µg/mL.

And the MIC ([1]; strain CFR UFR148, compound alone)?
The MIC was 16 µg/mL.

And the MIC ([1]; strain CFR UFR251, compound alone)?
The MIC was 8 µg/mL.

And the MIC ([1]; strain CFR UFR252, compound alone)?
Its MIC is 32 µg/mL.

And the MIC ([1]; strain CFR UFR253, compound alone)?
Its MIC is 32 µg/mL.

And the MIC ([1]; strain CFR UFR254, compound alone)?
The MIC was 32 µg/mL.

And the MIC ([2]; EAE 49469)?
Its MIC is 8 µg/mL.

And the MIC ([2]; EAE 200261)?
Its MIC is 8 µg/mL.

What about the MIC ([2]; EAE UFR199) of the same compound?
Its MIC is 16 µg/mL.

And the MIC ([2]; EAE UFR201)?
Its MIC is 8 µg/mL.

What about the MIC ([2]; EAE UFR202) of the same compound?
Its MIC is 32 µg/mL.

And the MIC ([2]; EAE UFR207)?
The MIC was 8 µg/mL.

And the MIC ([2]; EAE UFR213)?
The MIC was 16 µg/mL.

What about the MIC ([3]; CKO ROU) of the same compound?
The MIC was 32 µg/mL.

And the MIC ([3]; CKO UFR149)?
The MIC was 16 µg/mL.

What about the MIC ([3]; CKO UFR150) of the same compound?
The MIC was greater than 32 µg/mL.

What about the MIC ([4]; SMA UFR30, alone) of the same compound?
The MIC was 8 µg/mL.

What about the MIC ([4]; SMA UFR134, alone) of the same compound?
The MIC was 32 µg/mL.

And the MIC ([4]; SMA UFR135, alone)?
The MIC was greater than 32 µg/mL.

What about the MIC ([4]; SMA UFR136, alone) of the same compound?
Its MIC is greater than 32 µg/mL.

What about the MIC ([4]; SMA UFR137, alone) of the same compound?
The MIC was 32 µg/mL.

And the MIC ([4]; SMA UFR138, alone)?
Its MIC is 16 µg/mL.

What about the MIC ([4]; SMA UFR139, alone) of the same compound?
Its MIC is 32 µg/mL.

And the MIC ([4]; SMA UFR141, alone)?
Its MIC is 32 µg/mL.

And the MIC ([4]; SMA UFR142, alone)?
Its MIC is greater than 32 µg/mL.

What about the MIC ([4]; SMA UFR143, alone) of the same compound?
Its MIC is 32 µg/mL.

What about the MIC ([4]; SMA UFR239, alone) of the same compound?
Its MIC is 16 µg/mL.

And the MIC ([4]; strain SMA UFR140, compound alone)?
Its MIC is greater than 32 µg/mL.

And the MIC ([4]; strain SMA UFR238, compound alone)?
Its MIC is 32 µg/mL.

What about the MIC ([5]; KOX UFR21) of the same compound?
Its MIC is greater than 32 µg/mL.

What about the MIC ([5]; KOX UFR173) of the same compound?
Its MIC is 16 µg/mL.

What about the MIC ([5]; KOX UFR223) of the same compound?
The MIC was 8 µg/mL.

What about the MIC ([5]; KOX UFR224) of the same compound?
The MIC was 8 µg/mL.

What about the MIC ([6]; ECO 4133, alone) of the same compound?
Its MIC is 4 µg/mL.

And the MIC ([6]; ECO 5302, alone)?
Its MIC is 4 µg/mL.

And the MIC ([6]; ECO 131119, alone)?
The MIC was 4 µg/mL.

And the MIC ([6]; ECO 180070, alone)?
The MIC was 4 µg/mL.

What about the MIC ([6]; ECO 190314, alone) of the same compound?
The MIC was 8 µg/mL.

And the MIC ([6]; ECO 190317, alone)?
The MIC was 4 µg/mL.

And the MIC ([6]; ECO 190457, alone)?
Its MIC is 4 µg/mL.

What about the MIC ([6]; ECO 190549, alone) of the same compound?
Its MIC is 4 µg/mL.

And the MIC ([6]; ECO 200159, alone)?
Its MIC is 4 µg/mL.

And the MIC ([6]; ECO 200259, alone)?
Its MIC is 4 µg/mL.

And the MIC ([6]; ECO 200344, alone)?
Its MIC is 4 µg/mL.

What about the MIC ([6]; ECO 260096, alone) of the same compound?
Its MIC is 16 µg/mL.

What about the MIC ([6]; ECO 260304, alone) of the same compound?
The MIC was 8 µg/mL.

What about the MIC ([6]; ECO 260508, alone) of the same compound?
Its MIC is 8 µg/mL.

What about the MIC ([6]; ECO (strain number on grid row 356, not shown), alone) of the same compound?
The MIC was 8 µg/mL.

What about the MIC ([6]; ECO RGN238, alone) of the same compound?
Its MIC is 8 µg/mL.

What about the MIC ([6]; ECO UFR15, alone) of the same compound?
The MIC was 8 µg/mL.

What about the MIC ([6]; ECO UFR16, alone) of the same compound?
The MIC was 8 µg/mL.

And the MIC ([6]; ECO UFR17, alone)?
The MIC was greater than 32 µg/mL.

And the MIC ([6]; ECO UFR18, alone)?
The MIC was 8 µg/mL.

What about the MIC ([6]; ECO UFR19, alone) of the same compound?
The MIC was 8 µg/mL.

And the MIC ([6]; ECO UFR32, alone)?
Its MIC is 8 µg/mL.

And the MIC ([6]; ECO UFR39, alone)?
The MIC was 8 µg/mL.

What about the MIC ([6]; ECO UFR41, alone) of the same compound?
Its MIC is 8 µg/mL.

And the MIC ([6]; ECO UFR45, alone)?
Its MIC is 4 µg/mL.

What about the MIC ([6]; ECO UFR52, alone) of the same compound?
The MIC was 8 µg/mL.

What about the MIC ([6]; ECO UFR61O, alone) of the same compound?
The MIC was 16 µg/mL.

And the MIC ([6]; ECO UFR62, alone)?
The MIC was 8 µg/mL.

What about the MIC ([6]; ECO UFR74, alone) of the same compound?
Its MIC is 8 µg/mL.

What about the MIC ([6]; ECO UFR86, alone) of the same compound?
Its MIC is 16 µg/mL.

And the MIC ([6]; ECO UFR174, alone)?
Its MIC is 4 µg/mL.

And the MIC ([6]; ECO UFR175, alone)?
The MIC was 16 µg/mL.

And the MIC ([6]; ECO UFR176, alone)?
The MIC was 8 µg/mL.

What about the MIC ([6]; ECO UFR184, alone) of the same compound?
Its MIC is 8 µg/mL.

What about the MIC ([6]; ECO UFR208, alone) of the same compound?
Its MIC is 16 µg/mL.

What about the MIC ([6]; ECO UFR209, alone) of the same compound?
Its MIC is 8 µg/mL.

What about the MIC ([6]; ECO UFR210, alone) of the same compound?
The MIC was 4 µg/mL.

What about the MIC ([6]; ECO UFR211, alone) of the same compound?
The MIC was 8 µg/mL.

What about the MIC ([6]; ECO UFR212, alone) of the same compound?
The MIC was 8 µg/mL.

And the MIC ([6]; ECO URF20, alone)?
The MIC was 8 µg/mL.

And the MIC ([6]; strain ECO UFR177, compound alone)?
The MIC was 8 µg/mL.

And the MIC ([6]; strain ECO UFR178, compound alone)?
Its MIC is 16 µg/mL.

What about the MIC ([6]; strain ECO UFR179, compound alone) of the same compound?
Its MIC is 16 µg/mL.

And the MIC ([6]; strain ECO UFR180, compound alone)?
The MIC was 8 µg/mL.

And the MIC ([6]; strain ECO UFR181, compound alone)?
The MIC was 16 µg/mL.

And the MIC ([6]; strain ECO UFR182, compound alone)?
The MIC was 16 µg/mL.

And the MIC ([6]; strain ECO UFR183, compound alone)?
Its MIC is 32 µg/mL.

And the MIC ([6]; strain ECO UFR186, compound alone)?
Its MIC is 8 µg/mL.

What about the MIC ([6]; strain ECO UFR187, compound alone) of the same compound?
The MIC was 32 µg/mL.

What about the MIC ([6]; strain ECO UFR189, compound alone) of the same compound?
The MIC was 8 µg/mL.

And the MIC ([6]; strain ECO UFR190, compound alone)?
Its MIC is 8 µg/mL.

What about the MIC ([6]; strain ECO UFR191, compound alone) of the same compound?
Its MIC is 8 µg/mL.

What about the MIC ([6]; strain ECO UFR204, compound alone) of the same compound?
Its MIC is 8 µg/mL.

What about the MIC ([6]; strain ECO UFR205, compound alone) of the same compound?
The MIC was 8 µg/mL.

What about the MIC ([6]; strain ECO UFR206, compound alone) of the same compound?
Its MIC is 16 µg/mL.

What about the MIC ([6]; strain ECO UFR252GO, compound alone) of the same compound?
The MIC was 8 µg/mL.

What about the MIC ([6]; strain ECO UFR255, compound alone) of the same compound?
The MIC was 4 µg/mL.
